Measurements taken from patent publication US20050272784A1 (priority 2004, published 2005).

What was measured:
[1] = system: SPI1 type III protein secretion system (SopE'-'Bla secretion); assay: Primary assay: Type III protein secretion of the chimeric SopE'-'Bla polypeptide by Salmonella enterica; type: cell-based; details: read-out: SopE IC50
From the text: Primary assay: Type III protein secretion of the chimeric SopE′-'Bla polypeptide by Salmonella enterica. This procedure is a cell-based assay that measures the type III-dependent secretion by Salmonella enterica of a plasmid-encoded chimeric polypeptide whose synthesis can be regulated, and which is endowed with an enzymatic activity that can be monitored […] by hydrolysis of a substrate that is unable to penetrate into the bacterial cytoplasm within the time constraints of the reaction. Thus, the colorimetric reaction is not influenced by SopE′-'Bla polypeptide in the bacterial cytoplasm. Instead, it effectively measures the amount of polypeptide that has been secreted from the S. enterica cytoplasm to the extracellular medium via type III system protein secretion.
The SopE′-' Bla recombinant polypeptide consists of two functionally distinct domains spliced together. The N-terminus domain is encoded by a polynucleotide region specifying the signal for type III secretion of the SopE polypeptide of S. enterica, an effector of the SPI1 type III protein secretion system. The C-terminus domain of SopE′-'Bla consists of a 263 amino acid peptide sequence that corresponds to the TEM-1 β-lactamase expressed by plasmid pBR322 but without its N-terminal signal sequence. The TEM-1 β-lactamase part of the SopE′-'Bla chimeric polypeptide is used as a reporter enzyme. It is capable of hydrolyzing nitrocefin resulting in a product whose accumulation can be monitored by colorimetric detection. The secretion of the SopE′-'Bla chimeric polypeptide from the cytoplasm to the extracellular medium is dependent on type III protein secretion.
For this procedure, cells grown under conditions known to favor a functional SPI1 secretion system are induced for expression of the SopE′-'Bla protein and grown either in the presence or in the absence of putative inhibitors for determined time. Nitrocefin is then added to the various cultures and its hydrolysis are used for quantitation. An inhibitor of Type III protein secretion is generally a compound that reduces the signal of the enzymatic reaction by decreasing the amount of SopE′-'Bla secreted into the extracellular medium.

[2] = system: type III protein secretion system of P. aeruginosa PA103 (ExoU secretion); assay: Tertiary assay: Type III-dependent secretion of ExoU by P. aeruginosa PA103; type: cell-based; details: Pseudomonas aeruginosa, ExoU Conc 100 μM, read-out: ExoU % Inh
From the text: Tertiary assay: inhibition of Type III protein secretion of effectors from a Pseudomonas aeruginosa system. Type III protein secretion is used by P. aeruginosa to secrete several essential virulence determinants. One effector of the type III protein secretion system of P. aeruginosa PA103 is the virulence determinants ExoU.
The amount of Type III-dependent secretion of ExoU by P. aeruginosa PA103 can be determined in a cell-based assay by quantification of the 73.9 kDa ExoU protein scereted into the extracellular medium. Such quantitation can be achieved by growing strain PA103 in a deferrated medium in the presence of nitrilotriacetic acid (an inducer of Type III protein secretion in P. aeruginosa) and either in the presence or absence of putative inhibitors. After a prolonged growth period, the cells are sedimented and the supernatants concentrated by ammonium sulfate precipitation. The proteins in the resuspended pellets are separated by electrophoresis on SDS-polyacrylamide gels. After staining gels with Colloidal Blue™, the 73.9 kDa ExoU band is quantitated by scanning through an imager. The effects of inhibitors on the intensity of the ExoU band may be measured relative to that of untreated controls.

Compound	IC50 [1]	inhibition at 100 µM [2]
O=C(N[C@@H](C[S+]([O-])Cc1ccccc1)C(=O)O)c1nc(-c2ccc(C(F)(F)F)cc2)[nH]c1-c1ccc(-c2ccccc2)cc1 (stereo partly drawn) [Compound 12, (R)-2-{[5-Biphenyl-4-yl-2-(4-trifluoromethylphenyl)-1H-imidazole-4-carbonyl]amino}-3-phenylmethanesulfinylpropionic acid]	14 µM	84.3%
O=C(N[C@@H](COCc1ccccc1)C(=O)O)c1nc(-c2ccc(Oc3ccccc3)cc2)oc1-c1cnc(Cl)c(Cl)c1 [Compound 40, (S)-3-Benzyloxy-2-{[5-(5,6-dichloropyridin-3-yl)-2-(4-phenoxyphenyl)oxazole-4-carbonyl]amino}propionic acid]	5.2 µM	–
O=C(N[C@@H](COCc1ccccc1)C(=O)O)c1nc(-c2ccc(C(F)(F)F)cc2)oc1-c1cccnc1Cl [Compound 24, (S)-3-Benzyloxy-2-{[5-(2-chloropyridin-3-yl)-2-(4-trifluoromethylphenyl)oxazole-4-carbonyl]amino}propionic acid]	80.5 µM	–
